Type in all cases: functional
Assay [1] in a line: Antiproliferative activity against human HeLa cells after 48 hrs by SRB assay. (Sulforhodamine B stains cellular protein and so reports cell mass.)
Assay [2] can be described thus: Antiproliferative activity against human PANC1 cells after 48 hrs by SRB assay. Particulars: PANC-1, 48 h.
Assay [3] in a line: Antiproliferative activity against human MDA-MB-231 cells after 48 hrs by SRB assay. Conditions: MDA-MB-231, 48 h.

In the case of `Cn1c(=O)c(C(=O)NCCC(=O)N2CCN(c3ccccc3)CC2)c(O)c2ccccc21`, the GI50 in assay [1] (read-out: GI50) is 3.9 µM; in assay [1] (read-out: pGI50 (converted)), 3.9 µM; in assay [2] (read-out: GI50), 1.57 µM; in assay [2] (read-out: pGI50 (converted)) it was 1.57 µM; in assay [3] (read-out: GI50), 1.62 µM; in assay [3] (read-out: pGI50 (converted)) it was 1.62 µM.

For the molecule `COc1cccc(N2CCN(C(=O)CCNC(=O)c3c(O)c4ccccc4n(C)c3=O)CC2)c1`, the GI50 was 0.73 µM in assay [1] (read-out: GI50); 0.73 µM in assay [1] (read-out: pGI50 (converted)); 0.51 µM in assay [2] (read-out: GI50); 0.51 µM in assay [2] (read-out: pGI50 (converted)); 1.3 µM in assay [3] (read-out: GI50); 1.3 µM in assay [3] (read-out: pGI50 (converted)).

For `Cn1c(=O)c(C(=O)NCCC(=O)N2CCCCC2)c(O)c2ccccc21`, the GI50 was 0.82 µM in assay [1] (read-out: GI50); 0.82 µM in assay [1] (read-out: pGI50 (converted)); 0.15 µM in assay [2] (read-out: GI50); 0.15 µM in assay [2] (read-out: pGI50 (converted)); 1.4 µM in assay [3] (read-out: GI50); 1.4 µM in assay [3] (read-out: pGI50 (converted)).

In the case of `CN1CCN(C(=O)CCNC(=O)c2c(O)c3ccccc3n(C)c2=O)CC1`, the GI50 was 1.16 µM in assay [1] (read-out: GI50); 1.16 µM in assay [1] (read-out: pGI50 (converted)); 1.66 µM in assay [2] (read-out: GI50); 1.66 µM in assay [2] (read-out: pGI50 (converted)); 0.59 µM in assay [3] (read-out: GI50); 0.59 µM in assay [3] (read-out: pGI50 (converted)).

On to `Cn1c(=O)c(C(=O)NCCC(=O)N2CCN(c3ccccc3F)CC2)c(O)c2ccccc21`, for which the GI50 in assay [1] (read-out: GI50) was 0.96 µM; in assay [1] (read-out: pGI50 (converted)) it was 0.96 µM; in assay [2] (read-out: GI50), 2.5 µM; in assay [2] (read-out: pGI50 (converted)), 2.5 µM; in assay [3] (read-out: GI50) it was 1.7 µM; in assay [3] (read-out: pGI50 (converted)), 1.7 µM.

`Cn1c(=O)c(C(=O)NCCC(=O)N2CCN(c3ccc(C(F)(F)F)cc3)CC2)c(O)c2ccccc21`: the GI50 was 3.7 µM in assay [1] (read-out: GI50); 3.7 µM in assay [1] (read-out: pGI50 (converted)); 2.55 µM in assay [2] (read-out: GI50); 2.55 µM in assay [2] (read-out: pGI50 (converted)); 5.4 µM in assay [3] (read-out: GI50); 5.4 µM in assay [3] (read-out: pGI50 (converted)).

For `CCN1CCN(C(=O)CCNC(=O)c2c(O)c3ccccc3n(C)c2=O)CC1`, the GI50 in assay [1] (read-out: GI50) was 0.88 µM; in assay [1] (read-out: pGI50 (converted)) it was 0.88 µM; in assay [2] (read-out: GI50), 0.48 µM; in assay [2] (read-out: pGI50 (converted)) it was 0.48 µM; in assay [3] (read-out: GI50), 1.32 µM; in assay [3] (read-out: pGI50 (converted)), 1.32 µM.

Turning to `Cn1c(=O)c(C(=O)NCCC(=O)N2CCN(Cc3ccccc3)CC2)c(O)c2ccccc21`, the GI50 is 0.76 µM in assay [1] (read-out: GI50); 0.76 µM in assay [1] (read-out: pGI50 (converted)); 0.95 µM in assay [2] (read-out: GI50); 0.95 µM in assay [2] (read-out: pGI50 (converted)); 0.51 µM in assay [3] (read-out: GI50); 0.51 µM in assay [3] (read-out: pGI50 (converted)).

In the case of `Cn1c(=O)c(C(=O)NCCC(=O)N2CCSCC2)c(O)c2ccccc21`, the GI50 in assay [1] (read-out: GI50) was 3 µM; in assay [1] (read-out: pGI50 (converted)), 3 µM; in assay [2] (read-out: GI50), 1.91 µM; in assay [2] (read-out: pGI50 (converted)) it was 1.91 µM; in assay [3] (read-out: GI50) it was 2.25 µM; in assay [3] (read-out: pGI50 (converted)), 2.25 µM.

Regarding `Cn1c(=O)c(C(=O)NCCC(=O)N2CCC(Cc3ccccc3)CC2)c(O)c2ccccc21`, the GI50 is 1.4 µM in assay [1] (read-out: GI50); 1.4 µM in assay [1] (read-out: pGI50 (converted)); 0.68 µM in assay [2] (read-out: GI50); 0.68 µM in assay [2] (read-out: pGI50 (converted)); 0.71 µM in assay [3] (read-out: GI50); 0.71 µM in assay [3] (read-out: pGI50 (converted)).

On to `Cn1c(=O)c(C(=O)NCCC(=O)N2CCN(c3ccc([N+](=O)[O-])cc3)CC2)c(O)c2ccccc21`, for which the GI50 in assay [1] (read-out: GI50) was 0.94 µM; in assay [1] (read-out: pGI50 (converted)) it was 0.94 µM; in assay [2] (read-out: GI50), 0.42 µM; in assay [2] (read-out: pGI50 (converted)) it was 0.42 µM; in assay [3] (read-out: GI50) it was 0.3 µM; in assay [3] (read-out: pGI50 (converted)) it was 0.3 µM.

In the case of `COc1ccccc1N1CCN(C(=O)CCNC(=O)c2c(O)c3ccccc3n(C)c2=O)CC1`, the GI50 was 0.74 µM in assay [1] (read-out: GI50); 0.74 µM in assay [1] (read-out: pGI50 (converted)); 0.7 µM in assay [2] (read-out: GI50); 0.7 µM in assay [2] (read-out: pGI50 (converted)); 1.2 µM in assay [3] (read-out: GI50); 1.2 µM in assay [3] (read-out: pGI50 (converted)).

With `COc1ccc(C[C@@H](O)c2cc(OC)c(OC)c(OC)c2)cc1O` [COMBRETASTATIN], the GI50 in assay [1] (read-out: GI50) was 0.083 µM; in assay [1] (read-out: pGI50 (converted)), 0.083 µM; in assay [2] (read-out: GI50), 0.059 µM; in assay [2] (read-out: pGI50 (converted)) it was 0.059 µM; in assay [3] (read-out: GI50), 0.09 µM; in assay [3] (read-out: pGI50 (converted)) it was 0.09 µM.

For the molecule `COC(=O)Nc1nc2cc(C(=O)c3cccs3)ccc2[nH]1` [NOCODAZOLE], the GI50 in assay [1] (read-out: GI50), in assay [2] (read-out: GI50) and in assay [3] (read-out: GI50) was under 0.01 µM in each case.

For the origin of these results see ChEMBL document CHEMBL3877265, “Design, synthesis and docking studies of novel 1,2-dihydro-4-hydroxy-2-oxoquinoline-3-carboxamide derivatives as a potential anti-proliferative agents” (2017).
